Assays:
Experiment in all cases: relative viability (nuclei count vs DMSO), 5 days (fraction); higher = more cells survive
AZD5582 + Navitoclax = compound: C[C@@H](C(=O)N[C@@H](C1CCCCC1)C(=O)N2CCC[C@H]2C(=O)N[C@@H]3[C@@H](CC4=CC=CC=C34)OCC#CC#CCO[C@@H]5CC6=CC=CC=C6[C@@H]5NC(=O)[C@@H]7CCCN7C(=O)[C@H](C8CCCCC8)NC(=O)[C@H](C)NC)NC [AZD5582] + CC1(C)CCC(c2ccc(Cl)cc2)=C(CN2CCN(c3ccc(C(=O)NS(=O)(=O)c4ccc(N[C@H](CCN5CCOCC5)CSc5ccccc5)c(S(=O)(=O)C(F)(F)F)c4)cc3)CC2)C1 [Navitoclax] (partner 0.5 µM)
Procedure, shortened: (§1)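 Relative viability is defined as nuclei in treated wells over nuclei in vehicle wells. Duplicate plates were run and medians reported. Lung cancer cell lines in 1536-well plates were dosed by pin tool one day after seeding, with one drug or with a fixed anchor-drug dose plus five library-drug doses (not always all listed) in √10 steps, and nuclei were counted after 5 days.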

AZD5582 + Crizotinib = compound: C[C@@H](C(=O)N[C@@H](C1CCCCC1)C(=O)N2CCC[C@H]2C(=O)N[C@@H]3[C@@H](CC4=CC=CC=C34)OCC#CC#CCO[C@@H]5CC6=CC=CC=C6[C@@H]5NC(=O)[C@@H]7CCCN7C(=O)[C@H](C8CCCCC8)NC(=O)[C@H](C)NC)NC [AZD5582] + C[C@@H](Oc1cc(-c2cnn(C3CCNCC3)c2)cnc1N)c1c(Cl)ccc(F)c1Cl [Crizotinib] (partner 1 µM)
Procedure, shortened: as §1

Temozolomide + Lapatinib = compound: Cn1nnc2c(C(N)=O)ncn2c1=O [Temozolomide] + CS(=O)(=O)CCNCc1ccc(-c2ccc3ncnc(Nc4ccc(OCc5cccc(F)c5)c(Cl)c4)c3c2)o1 [Lapatinib] (partner 2 µM)
Procedure, shortened: as §1

[1] = compound: Cn1nnc2c(C(N)=O)ncn2c1=O [Temozolomide] + C[C@]1(O)C[C@@H](c2nc(-c3ccc4ccc(-c5ccccc5)nc4c3)c3c(N)nccn32)C1 [Linsitinib] (partner 1 µM)
Procedure, shortened: as §1

NCI-H1703
relative viability (AZD5582 + Navitoclax; first compound 0.001581 µM): 0.874
relative viability (AZD5582 + Navitoclax; first compound 0.005 µM): 0.807
relative viability (AZD5582 + Navitoclax; first compound 0.01581 µM): 1.03
relative viability (AZD5582 + Navitoclax; first compound 0.05 µM): 0.557
relative viability (AZD5582 + Crizotinib; first compound 0.001581 µM): 0.463
relative viability (AZD5582 + Crizotinib; first compound 0.005 µM): 0.428
relative viability (AZD5582 + Crizotinib; first compound 0.01581 µM): 0.59
relative viability (AZD5582 + Crizotinib; first compound 0.05 µM): 0.459
relative viability (Temozolomide + Lapatinib; first compound 0.2 µM): 1.39
relative viability (Temozolomide + Lapatinib; first compound 0.6325 µM): 1.08
relative viability (Temozolomide + Lapatinib; first compound 2 µM): 1.59
relative viability (Temozolomide + Lapatinib; first compound 6.325 µM): 0.972
relative viability (Temozolomide + Lapatinib; first compound 20 µM): 1.21
relative viability ([1]; first compound 0.2 µM): 0.863
relative viability ([1]; first compound 0.6325 µM): 0.609
relative viability ([1]; first compound 2 µM): 1.32
relative viability ([1]; first compound 6.325 µM): 0.841
relative viability ([1]; first compound 20 µM): 0.95

— the supplement of paper PMC10307832
